In patent publication US10266537B2, “3-acetylenyl-pyrazole-pyrimidine derivative, and preparation method therefor and uses thereof” (Si Chuan University, priority 2015, dated 2019):

What was measured:
Ros(h) = Ros(h) (Homo sapiens (Human), UniProt P08922); assay: Kinase inhibition assay (KinaseProfiler, 33P-ATP); format: biochemical; details: read-out: The percentage of the remaining active protein
MRCKα(h) = MRCKα(h) (Homo sapiens (Human), UniProt Q5VT25); assay: Kinase inhibition assay (KinaseProfiler, 33P-ATP); format: biochemical; details: read-out: The percentage of the remaining active protein
MST2(h) = MST2(h) (Homo sapiens (Human), UniProt Q13188); assay: Kinase inhibition assay (KinaseProfiler, 33P-ATP); format: biochemical; details: read-out: The percentage of the remaining active protein
Sequence of MST2(h) (Q13188 whole entry): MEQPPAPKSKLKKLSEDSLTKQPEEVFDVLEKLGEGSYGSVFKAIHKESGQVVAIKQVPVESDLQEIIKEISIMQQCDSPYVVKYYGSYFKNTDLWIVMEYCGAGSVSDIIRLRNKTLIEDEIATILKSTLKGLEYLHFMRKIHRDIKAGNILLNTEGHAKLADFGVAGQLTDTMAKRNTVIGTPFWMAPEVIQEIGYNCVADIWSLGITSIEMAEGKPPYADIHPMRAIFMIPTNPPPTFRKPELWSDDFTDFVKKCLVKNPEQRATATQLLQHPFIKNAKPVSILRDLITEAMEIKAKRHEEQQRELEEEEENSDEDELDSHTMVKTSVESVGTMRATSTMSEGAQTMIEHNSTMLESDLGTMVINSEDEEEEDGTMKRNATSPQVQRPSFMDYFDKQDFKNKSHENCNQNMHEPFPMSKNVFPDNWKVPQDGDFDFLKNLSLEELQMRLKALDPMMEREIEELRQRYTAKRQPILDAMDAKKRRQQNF

[1] = target: PI3 Kinase (p110b/p85a)(m) (Mus musculus (Mouse), UniProt Q8BTI9); assay: Kinase inhibition assay (KinaseProfiler, 33P-ATP); format: biochemical; details: read-out: The percentage of the remaining active protein
EGFR(L861Q)(h) = EGFR(L861Q)(h) (Homo sapiens (Human), UniProt P00533, L861Q); assay: Kinase inhibition assay (KinaseProfiler, 33P-ATP); format: biochemical; details: read-out: The percentage of the remaining active protein
IGF-1R(h), activated = IGF-1R(h), activated (Homo sapiens (Human), UniProt P08069); assay: Kinase inhibition assay (KinaseProfiler, 33P-ATP); format: biochemical; details: read-out: The percentage of the remaining active protein
Pyk2 = Pyk2 (Homo sapiens (Human), UniProt Q14289); assay: Kinase inhibition assay (KinaseProfiler, 33P-ATP); format: biochemical; details: Pyk2(h), read-out: The percentage of the remaining active protein
Sequence of Pyk2 (Q14289 whole entry): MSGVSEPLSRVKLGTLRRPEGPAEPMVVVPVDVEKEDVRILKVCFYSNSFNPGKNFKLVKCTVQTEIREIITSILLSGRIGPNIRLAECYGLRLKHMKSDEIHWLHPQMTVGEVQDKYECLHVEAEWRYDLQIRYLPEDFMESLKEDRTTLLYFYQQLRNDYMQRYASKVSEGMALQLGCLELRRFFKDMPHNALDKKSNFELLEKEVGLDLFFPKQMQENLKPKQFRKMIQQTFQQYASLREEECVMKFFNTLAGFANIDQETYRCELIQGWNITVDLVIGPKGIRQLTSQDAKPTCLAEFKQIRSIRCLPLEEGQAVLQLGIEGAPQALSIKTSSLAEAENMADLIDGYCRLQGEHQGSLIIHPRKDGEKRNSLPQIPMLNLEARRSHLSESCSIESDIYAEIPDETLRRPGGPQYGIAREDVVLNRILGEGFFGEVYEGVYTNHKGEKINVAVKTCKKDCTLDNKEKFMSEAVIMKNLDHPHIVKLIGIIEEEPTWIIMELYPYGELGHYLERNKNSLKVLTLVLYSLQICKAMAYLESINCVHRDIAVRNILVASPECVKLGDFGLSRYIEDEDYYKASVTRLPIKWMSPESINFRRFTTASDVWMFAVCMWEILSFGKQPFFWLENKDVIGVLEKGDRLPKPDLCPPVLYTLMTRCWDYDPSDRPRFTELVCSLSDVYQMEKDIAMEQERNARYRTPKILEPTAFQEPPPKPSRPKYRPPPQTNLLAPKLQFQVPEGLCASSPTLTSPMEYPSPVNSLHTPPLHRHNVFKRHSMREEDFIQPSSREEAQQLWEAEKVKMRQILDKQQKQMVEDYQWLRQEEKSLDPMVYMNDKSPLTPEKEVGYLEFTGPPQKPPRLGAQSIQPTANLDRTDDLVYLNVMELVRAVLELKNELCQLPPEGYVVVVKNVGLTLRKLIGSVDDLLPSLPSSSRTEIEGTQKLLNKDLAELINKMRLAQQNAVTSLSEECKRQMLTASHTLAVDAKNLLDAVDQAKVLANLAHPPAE

PKCθ(h) = PKCθ(h) (Homo sapiens (Human), UniProt Q04759); assay: Kinase inhibition assay (KinaseProfiler, 33P-ATP); format: biochemical; details: read-out: The percentage of the remaining active protein
LIMK1 = LIMK1 (Homo sapiens (Human), UniProt P53667); assay: biochemical; details: read-out: The percentage of the remaining active protein
Blk(m) = Blk(m) (Mus musculus (Mouse), UniProt P16277); assay: Kinase inhibition assay (KinaseProfiler, 33P-ATP); format: biochemical; details: read-out: The percentage of the remaining active protein
Sequence of Blk(m) (P16277 whole entry): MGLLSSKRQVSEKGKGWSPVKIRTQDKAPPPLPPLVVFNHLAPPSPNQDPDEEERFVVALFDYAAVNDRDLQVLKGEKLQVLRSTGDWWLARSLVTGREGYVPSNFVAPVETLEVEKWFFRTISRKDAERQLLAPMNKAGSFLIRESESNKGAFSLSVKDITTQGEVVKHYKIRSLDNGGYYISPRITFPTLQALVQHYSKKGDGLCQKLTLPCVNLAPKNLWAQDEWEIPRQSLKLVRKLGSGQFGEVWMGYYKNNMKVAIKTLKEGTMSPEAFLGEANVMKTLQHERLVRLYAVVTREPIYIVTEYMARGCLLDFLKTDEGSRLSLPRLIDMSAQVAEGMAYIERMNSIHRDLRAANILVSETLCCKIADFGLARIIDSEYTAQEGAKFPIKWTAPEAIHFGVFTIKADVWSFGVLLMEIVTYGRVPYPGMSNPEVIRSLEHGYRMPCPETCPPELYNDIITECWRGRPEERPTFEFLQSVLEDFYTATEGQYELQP

EphA4 = EphA4 (Homo sapiens (Human), UniProt P54764); assay: Kinase inhibition assay (KinaseProfiler, 33P-ATP); format: biochemical; details: EphA4(h), read-out: The percentage of the remaining active protein
PKCγ(h) = PKCγ(h) (Homo sapiens (Human), UniProt P05129); assay: Kinase inhibition assay (KinaseProfiler, 33P-ATP); format: biochemical; details: read-out: The percentage of the remaining active protein
PhKγ2(h) = PhKγ2(h) (Homo sapiens (Human), UniProt P15735); assay: Kinase inhibition assay (KinaseProfiler, 33P-ATP); format: biochemical; details: read-out: The percentage of the remaining active protein
Sequence of PhKγ2(h) (P15735 whole entry): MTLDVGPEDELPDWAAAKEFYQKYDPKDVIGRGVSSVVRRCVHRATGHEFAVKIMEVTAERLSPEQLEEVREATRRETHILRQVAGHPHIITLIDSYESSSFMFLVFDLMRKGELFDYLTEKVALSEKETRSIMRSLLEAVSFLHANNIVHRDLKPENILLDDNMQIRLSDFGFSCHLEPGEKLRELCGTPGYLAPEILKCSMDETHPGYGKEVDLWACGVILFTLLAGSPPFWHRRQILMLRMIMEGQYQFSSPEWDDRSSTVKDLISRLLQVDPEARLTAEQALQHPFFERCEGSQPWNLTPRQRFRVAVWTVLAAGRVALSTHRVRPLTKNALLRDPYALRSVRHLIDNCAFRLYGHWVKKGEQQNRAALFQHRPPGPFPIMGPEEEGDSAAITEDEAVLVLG

PKCδ(h) = PKCδ(h) (Homo sapiens (Human), UniProt Q05655); assay: Kinase inhibition assay (KinaseProfiler, 33P-ATP); format: biochemical; details: read-out: The percentage of the remaining active protein
[2] = target: PI3 Kinase (p110a(E542K)/p85a)(m) (Mus musculus (Mouse), UniProt P42337, E542K); assay: Kinase inhibition assay (KinaseProfiler, 33P-ATP); format: biochemical; details: read-out: The percentage of the remaining active protein
EphB1 = EphB1 (Homo sapiens (Human), UniProt P54762); assay: Kinase inhibition assay (KinaseProfiler, 33P-ATP); format: biochemical; details: EphB1(h), read-out: The percentage of the remaining active protein
cKit(V654A)(h) = cKit(V654A)(h) (Homo sapiens (Human), UniProt P10721, V654A); assay: Kinase inhibition assay (KinaseProfiler, 33P-ATP); format: biochemical; details: read-out: The percentage of the remaining active protein
Sequence of cKit(V654A)(h) (P10721 26-976 V654A): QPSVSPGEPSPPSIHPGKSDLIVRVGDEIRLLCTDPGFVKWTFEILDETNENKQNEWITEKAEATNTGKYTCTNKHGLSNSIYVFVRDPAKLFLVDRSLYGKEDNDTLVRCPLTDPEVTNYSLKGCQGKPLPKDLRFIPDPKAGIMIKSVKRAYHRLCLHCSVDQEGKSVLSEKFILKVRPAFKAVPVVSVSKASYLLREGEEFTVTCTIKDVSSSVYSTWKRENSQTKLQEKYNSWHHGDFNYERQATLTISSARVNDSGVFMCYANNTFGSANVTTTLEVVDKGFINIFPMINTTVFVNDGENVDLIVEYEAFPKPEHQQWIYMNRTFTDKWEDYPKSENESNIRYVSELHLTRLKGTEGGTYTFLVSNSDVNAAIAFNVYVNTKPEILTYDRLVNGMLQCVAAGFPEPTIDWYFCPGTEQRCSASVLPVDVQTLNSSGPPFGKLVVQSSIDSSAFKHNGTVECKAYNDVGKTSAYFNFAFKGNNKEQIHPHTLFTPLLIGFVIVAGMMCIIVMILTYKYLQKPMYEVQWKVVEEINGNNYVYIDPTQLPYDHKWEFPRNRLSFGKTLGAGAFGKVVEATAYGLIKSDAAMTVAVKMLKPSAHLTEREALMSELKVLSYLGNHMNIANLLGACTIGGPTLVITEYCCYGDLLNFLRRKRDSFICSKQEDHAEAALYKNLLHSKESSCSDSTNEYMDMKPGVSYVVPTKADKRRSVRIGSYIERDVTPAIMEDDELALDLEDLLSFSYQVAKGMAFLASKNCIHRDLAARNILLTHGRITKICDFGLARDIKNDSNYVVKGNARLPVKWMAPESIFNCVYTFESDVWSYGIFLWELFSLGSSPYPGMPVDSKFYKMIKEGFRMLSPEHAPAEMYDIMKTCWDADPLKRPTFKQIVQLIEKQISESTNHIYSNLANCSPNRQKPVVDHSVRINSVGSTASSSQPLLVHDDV

IGF-1R(h) = IGF-1R(h) (Homo sapiens (Human), UniProt P08069); assay: Kinase inhibition assay (KinaseProfiler, 33P-ATP); format: biochemical; details: read-out: The percentage of the remaining active protein
GRK1(h) = GRK1(h) (Homo sapiens (Human), UniProt Q15835); assay: Kinase inhibition assay (KinaseProfiler, 33P-ATP); format: biochemical; details: read-out: The percentage of the remaining active protein
DMPK(h) = DMPK(h) (Homo sapiens (Human), UniProt Q09013); assay: Kinase inhibition assay (KinaseProfiler, 33P-ATP); format: biochemical; details: read-out: The percentage of the remaining active protein
Sequence of DMPK(h) (Q09013 whole entry): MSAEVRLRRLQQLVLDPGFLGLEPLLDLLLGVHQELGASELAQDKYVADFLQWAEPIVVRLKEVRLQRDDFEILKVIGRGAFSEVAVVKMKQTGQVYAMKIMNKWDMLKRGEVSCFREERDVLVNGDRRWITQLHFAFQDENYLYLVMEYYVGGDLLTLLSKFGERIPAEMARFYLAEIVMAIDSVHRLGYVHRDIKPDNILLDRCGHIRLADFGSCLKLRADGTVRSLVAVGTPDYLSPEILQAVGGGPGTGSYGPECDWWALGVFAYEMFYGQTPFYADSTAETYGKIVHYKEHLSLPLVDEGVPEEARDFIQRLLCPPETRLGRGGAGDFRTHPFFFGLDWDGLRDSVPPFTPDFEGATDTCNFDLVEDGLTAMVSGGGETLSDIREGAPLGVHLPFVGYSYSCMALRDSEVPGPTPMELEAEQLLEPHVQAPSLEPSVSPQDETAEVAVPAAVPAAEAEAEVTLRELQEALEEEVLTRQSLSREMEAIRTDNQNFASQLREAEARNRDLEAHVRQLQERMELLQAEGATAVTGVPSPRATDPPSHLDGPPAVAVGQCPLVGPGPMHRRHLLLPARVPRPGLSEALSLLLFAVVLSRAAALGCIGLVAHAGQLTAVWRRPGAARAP

JAK1 = JAK1 (Homo sapiens (Human), UniProt P23458); assay: Kinase inhibition assay (KinaseProfiler, 33P-ATP); format: biochemical; details: JAK1(h), read-out: The percentage of the remaining active protein
EGFR(T790M) = EGFR(T790M) (Homo sapiens (Human), UniProt P00533, T790M); assay: Kinase inhibition assay (KinaseProfiler, 33P-ATP); format: biochemical; details: EGFR(T790M)(h), read-out: The percentage of the remaining active protein
PKCη(h) = PKCη(h) (Homo sapiens (Human), UniProt P24723); assay: Kinase inhibition assay (KinaseProfiler, 33P-ATP); format: biochemical; details: read-out: The percentage of the remaining active protein
Sequence of PKCη(h) (P24723 whole entry): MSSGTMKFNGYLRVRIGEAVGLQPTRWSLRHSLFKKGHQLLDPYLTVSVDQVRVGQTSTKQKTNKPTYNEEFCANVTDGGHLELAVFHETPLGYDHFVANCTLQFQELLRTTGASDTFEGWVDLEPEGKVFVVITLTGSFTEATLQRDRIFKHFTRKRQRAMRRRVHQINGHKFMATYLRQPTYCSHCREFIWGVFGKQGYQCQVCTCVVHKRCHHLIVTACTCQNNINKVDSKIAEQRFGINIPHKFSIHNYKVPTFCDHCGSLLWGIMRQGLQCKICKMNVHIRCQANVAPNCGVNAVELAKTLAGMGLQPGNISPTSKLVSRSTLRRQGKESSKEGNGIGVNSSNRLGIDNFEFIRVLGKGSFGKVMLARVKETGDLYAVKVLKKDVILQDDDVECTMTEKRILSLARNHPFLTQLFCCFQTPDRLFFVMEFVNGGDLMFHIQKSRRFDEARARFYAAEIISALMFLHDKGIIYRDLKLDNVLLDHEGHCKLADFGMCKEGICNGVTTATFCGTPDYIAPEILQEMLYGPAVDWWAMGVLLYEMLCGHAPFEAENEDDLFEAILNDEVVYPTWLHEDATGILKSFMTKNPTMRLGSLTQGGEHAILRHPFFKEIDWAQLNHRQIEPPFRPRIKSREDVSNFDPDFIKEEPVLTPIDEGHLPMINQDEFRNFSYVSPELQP

FGFR3 = FGFR3 (Homo sapiens (Human), UniProt P22607); assay: Kinase inhibition assay (KinaseProfiler, 33P-ATP); format: biochemical; details: FGFR3(h), read-out: The percentage of the remaining active protein
PRAK(h) = PRAK(h) (Homo sapiens (Human), UniProt Q8IW41); assay: Kinase inhibition assay (KinaseProfiler, 33P-ATP); format: biochemical; details: read-out: The percentage of the remaining active protein
CK2α2(h) = CK2α2(h) (Homo sapiens (Human), UniProt P19784); assay: Kinase inhibition assay (KinaseProfiler, 33P-ATP); format: biochemical; details: read-out: The percentage of the remaining active protein
Sequence of CK2α2(h) (P19784 whole entry): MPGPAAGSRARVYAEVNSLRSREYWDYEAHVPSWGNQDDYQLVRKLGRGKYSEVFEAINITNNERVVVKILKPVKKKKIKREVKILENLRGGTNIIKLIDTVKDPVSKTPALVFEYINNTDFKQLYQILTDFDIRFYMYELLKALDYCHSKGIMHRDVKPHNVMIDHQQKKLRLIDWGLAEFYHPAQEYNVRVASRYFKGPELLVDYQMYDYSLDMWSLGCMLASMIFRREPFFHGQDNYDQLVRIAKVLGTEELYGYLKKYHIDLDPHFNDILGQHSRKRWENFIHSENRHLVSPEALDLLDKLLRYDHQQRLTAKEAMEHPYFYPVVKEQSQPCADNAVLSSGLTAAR

FGFR2(N549H)(h) = FGFR2(N549H)(h) (Homo sapiens (Human), UniProt P21802, N549H); assay: Kinase inhibition assay (KinaseProfiler, 33P-ATP); format: biochemical; details: read-out: The percentage of the remaining active protein
EGFR(L858R)(h) = EGFR(L858R)(h) (Homo sapiens (Human), UniProt P00533, L858R); assay: Kinase inhibition assay (KinaseProfiler, 33P-ATP); format: biochemical; details: read-out: The percentage of the remaining active protein

remaining activity at 10 µM (Ros(h)): 82% | remaining activity at 10 µM (MRCKα(h)): 101% | remaining activity at 10 µM (MST2(h)): 63% | remaining activity at 10 µM [1]: 84% | remaining activity at 10 µM (EGFR(L861Q)(h)): 0% | remaining activity at 10 µM (IGF-1R(h), activated): 91% | remaining activity at 10 µM (Pyk2): 5% | remaining activity at 10 µM (PKCθ(h)): 103% | remaining activity at 10 µM (LIMK1): 5% | remaining activity at 10 µM (Blk(m)): 1% | remaining activity at 10 µM (EphA4): -2% | remaining activity at 10 µM (PKCγ(h)): 90% | remaining activity at 10 µM (PhKγ2(h)): 113% | remaining activity at 10 µM (PKCδ(h)): 96% | remaining activity at 10 µM [2]: 92% | remaining activity at 10 µM (EphB1): -1% | remaining activity at 10 µM (cKit(V654A)(h)): 7% | remaining activity at 10 µM (IGF-1R(h)): 66% | remaining activity at 10 µM (GRK1(h)): 94% | remaining activity at 10 µM (DMPK(h)): 91% | remaining activity at 10 µM (JAK1): 3% | remaining activity at 10 µM (EGFR(T790M)): 4% | remaining activity at 10 µM (PKCη(h)): 72% | remaining activity at 10 µM (FGFR3): 3% | remaining activity at 10 µM (PRAK(h)): 77% | remaining activity at 10 µM (CK2α2(h)): 92% | remaining activity at 10 µM (FGFR2(N549H)(h)): -1% | remaining activity at 10 µM (EGFR(L858R)(h)): 21%
SMILES: Cc1ccc(NC(=O)c2ccc(C)c(C(F)(F)F)c2)cc1C#Cc1nn([C@H]2CC[C@H](O)CC2)c2ncnc(N)c12 [Compound 93]
